Assay: xn = mol fraction of the nth substance listed, in the solute-free solvent

CN1CCN(C2=Nc3cc(Cl)ccc3Nc3ccccc32)CC1 + ClCCCl + Cc1ccccc1
solubility (g/100 g solution)
Settings | x2 = 0.09454 | x2 = 0.1907 | x2 = 0.2875 | x2 = 0.3851 | x2 = 0.4844 | x2 = 0.5848 | x2 = 0.6866 | x2 = 0.79 | x2 = 0.8945
293.15 K | 2.42 | 2.81 | 3.04 | 3.48 | 3.87 | 4.26 | 4.74 | 5.15 | 5.47
298.15 K | 2.8 | 3.04 | 3.49 | 3.86 | 4.38 | 4.96 | 5.44 | 5.92 | 6.3
303.15 K | 3.12 | 3.63 | 3.88 | 4.47 | 5.03 | 5.87 | 6.44 | 6.95 | 7.31
308.15 K | 3.94 | 4.47 | 4.94 | 5.58 | 6.12 | 6.82 | 7.42 | 8.2 | 8.68
313.15 K | 4.7 | 5.37 | 5.95 | 6.67 | 7.33 | 8.06 | 8.85 | 9.38 | 9.62
318.15 K | 5.75 | 6.09 | 6.93 | 7.46 | 8.32 | 9.3 | 9.75 | 10.8 | 11.5
323.15 K | 7.24 | 7.72 | 8.87 | 9.82 | 10.7 | 11.6 | 12.3 | 13.2 | 13.6

CCC(C)n1ncn(-c2ccc(N3CCN(c4ccc(OCC5COC(Cn6cncn6)(c6ccc(Cl)cc6Cl)O5)cc4)CC3)cc2)c1=O (stereo not drawn) + ClCCl + CCCCO
solubility (g/100 g solution)
Settings | x2 = 0.08928 | x2 = 0.1807 | x2 = 0.2744 | x2 = 0.3704 | x2 = 0.4687 | x2 = 0.5696 | x2 = 0.6731 | x2 = 0.7792 | x2 = 0.8882
288.15 K | 0.0509 | 0.143 | 0.594 | 1.83 | 4.18 | 9.32 | 14.8 | 19.8 | 22
293.15 K | 0.0634 | 0.189 | 0.775 | 2.27 | 5.04 | 10.4 | 16 | 20.9 | 23.1
298.15 K | 0.078 | 0.249 | 1 | 2.81 | 5.97 | 11.6 | 17 | 22.1 | 24.2
303.15 K | 0.0948 | 0.323 | 1.28 | 3.4 | 7.13 | 12.8 | 18.2 | 23.1 | 25.3
308.15 K | 0.115 | 0.412 | 1.64 | 4.11 | 8.37 | 14 | 19.3 | 24.2 | 26.4

CCC(C)n1ncn(-c2ccc(N3CCN(c4ccc(OCC5COC(Cn6cncn6)(c6ccc(Cl)cc6Cl)O5)cc4)CC3)cc2)c1=O (stereo not drawn) + ClCCl + CCCO
solubility (g/100 g solution)
Settings | x2 = 0.07363 | x2 = 0.1517 | x2 = 0.2346 | x2 = 0.3229 | x2 = 0.417 | x2 = 0.5176 | x2 = 0.6254 | x2 = 0.741 | x2 = 0.8656
288.15 K | 0.0545 | 0.15 | 0.459 | 1.65 | 3.95 | 8.85 | 14.4 | 19.5 | 21.8
293.15 K | 0.0662 | 0.199 | 0.602 | 2.05 | 4.66 | 9.92 | 15.7 | 20.8 | 22.9
298.15 K | 0.0798 | 0.258 | 0.786 | 2.52 | 5.51 | 11.1 | 17 | 22 | 24
303.15 K | 0.0965 | 0.332 | 0.996 | 3.08 | 6.4 | 12.3 | 18.3 | 23.3 | 25.1
308.15 K | 0.115 | 0.424 | 1.27 | 3.71 | 7.42 | 13.6 | 19.7 | 24.6 | 26.2

CCC(C)n1ncn(-c2ccc(N3CCN(c4ccc(OCC5COC(Cn6cncn6)(c6ccc(Cl)cc6Cl)O5)cc4)CC3)cc2)c1=O (stereo not drawn) + ClCCl + CCO
solubility (g/100 g solution)
Settings | x2 = 0.05744 | x2 = 0.1206 | x2 = 0.1903 | x2 = 0.2677 | x2 = 0.3542 | x2 = 0.4513 | x2 = 0.5613 | x2 = 0.6869 | x2 = 0.8315
288.15 K | 0.0488 | 0.124 | 0.37 | 1.04 | 2.95 | 7.26 | 15.2 | 21.3 | 25.9
293.15 K | 0.0616 | 0.163 | 0.436 | 1.35 | 3.51 | 8.44 | 16.3 | 22.6 | 27
298.15 K | 0.0776 | 0.215 | 0.511 | 1.72 | 4.09 | 9.83 | 17.6 | 24 | 28.2
303.15 K | 0.0979 | 0.279 | 0.598 | 2.16 | 4.81 | 11.3 | 18.8 | 25.4 | 29.3
308.15 K | 0.122 | 0.362 | 0.694 | 2.7 | 5.58 | 13 | 20.1 | 26.7 | 30.5

— the CheMixHub drug solubility set
